Experimental data as given in patent publication US8993717B2, “Gadd45beta targeting agents” (Imperial Innovations Limited, priority 2009, dated 2015).
Square brackets hold non-standard residues; d marks the D form. Peptide text beside a SMILES is read from it. * marks the point of attachment. Cbz = O=C(OCc1ccccc1)*

Assays:
[1] = biological target: T1, Gadd45β-inhibited MKK7 (Homo sapiens, UniProt O14733); experiment: MKK7 kinase assay in the presence of recombinant hGadd45β; format: biochemical; conditions: 1 nM or 5 nM peptide, 5 μM GST-hGadd45β
T1 construct: expressed in transfected cells; host or cells: HEK-293 (FLAG-MKK7); bacteria (GST-hGadd45β)
T1 sequence (O14733 1-419): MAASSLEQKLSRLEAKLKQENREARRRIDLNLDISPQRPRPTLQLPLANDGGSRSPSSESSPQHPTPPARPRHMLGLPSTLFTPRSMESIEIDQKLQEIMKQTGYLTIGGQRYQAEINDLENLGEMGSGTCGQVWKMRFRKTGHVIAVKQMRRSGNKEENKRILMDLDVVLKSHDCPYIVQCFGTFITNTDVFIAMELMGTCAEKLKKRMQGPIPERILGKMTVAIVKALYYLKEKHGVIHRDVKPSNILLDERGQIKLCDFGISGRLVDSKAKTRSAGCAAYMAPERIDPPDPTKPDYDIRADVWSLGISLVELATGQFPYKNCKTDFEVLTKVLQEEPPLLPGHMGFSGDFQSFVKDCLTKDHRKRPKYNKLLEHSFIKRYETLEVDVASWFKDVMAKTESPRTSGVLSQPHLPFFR
Protocol: In FIG. 6, transient transfection of pcDNA-FLAG-MKK7 in HEK-293 cells was performed using the method of Ca3(PO4)2 precipitation, essentially as described in Papa, S et al., (2004) Nat. Cell Biol. 6, 146-153 and references therein. 36 hrs after transfection, the cells were treated with 100 ng/ml phorbol 12-myristate 13-acetate (PMA) and 1 μM ionomycin for 30 min at 37° C. Cell extracts were prepared as described in example 4 and used for immunoprecipitation with anti-FLAG antibodies (binding to FLAG-MKK7) as described in Papa, S et al., (2004) Nat. Cell Biol. 6, 146-153 and references therein. Briefly, 50 μg of cell lysate from PMA-ionomycin (P/D-treated or untreated, HEK-293 cells transiently expressing FLAG-MKK7 was incubated with 10 μl of anti-FLAG M2 Affinity Gel (SIGMA) for 4 hrs at 4° C. during rotation. The immunoprecipitates were then washed 3 times in lysis buffer and twice more in kinase buffer (10 mM HEPES, 5 mM MgCl2, 1 mM MnCl2,12.5 mM β-glycerophosphate, 2 mM DTT, 4 mM NaF and 0.1 mM Na3VO4). MKK7 catalytic activity was finally measured in kinase assays by incubating FLAG-MKK7 immunoprecipitates at 30° C. for 20 min with 20 μl of kinase buffer containing 2 μM of recombinant GST-JNK1 and 5 μCi of [γ-^32P]ATP) (kinase reaction), as described in Papa, S et a., (2004) Nat. Cell Biol. 6, 146-153 and references therein.
In some reactions, to test the ability of D-tetrapeptide antagonists to disrupt the Gadd45β-MKK7 interaction and so release the catalytic activity of MKK7 from Gadd45β-afforded inhibition, FLAG-MKK7 immunoprecipitates were 1) first pre-incubated for 10 min at 30° C. with either 1 nM or 5 nM of DTP1, DTP2 or negative control (NC) D-tetrapeptides, NC1, NC2, NC3 and NC4, and 2) then incubated for another 10 min at 30° C. with or without 5 μM of a GST-fusion protein of recombinant human (h)Gadd45β (GST-hGadd45β; purified from bacterial lysates as described in Papa, S., (2007) J. Biol. Chem. 282, 19029-19041), before using them for the kinase reaction described above, as indicated in FIG. 6.
In all cases, kinase reactions were terminated by the addition of Laemmli sample buffer. […] For a further discussion of MKK7 kinase assay conditions, the reader is directed to Papa, S et al., (2007) J. Biol. Chem. 282, 19029-19041 and Papa, S et al., (2004) Nat. Cell Biol. 6, 146-153 and the references therein.

[2] = biological target: T2, Gadd45β/MKK7 interaction (Homo sapiens, UniProt O14733); experiment: ELISA competition assay after 48-hr pre-incubation with human serum at 37° C.; format: binding; conditions: for stability after pre-incubation with human serum: result in words
T2 construct: The GST-fused full-length kinase was coated for 16 h at 4° C., at a concentration of 42 nM; made in house
T2 sequence (O14733 1-419): T1 sequence (O14733 1-419)
Protocol: In FIG. 4, Gadd45β/MKK7 binding, competition ELISA assays were carried out to determine the stability of Z-conjugated D-tetrapeptides in human serum. […] ELISA were performed as described in FIG. 3 C. Briefly, 100 μl of 42 nM of recombinant GST-MKK7 in ELISA buffer (25 mM Tris pH 7.5, 150 mM NaCl, 1 mM DTT, 1 mM EDTA) were coated onto wells of 96-well plates by overnight incubation at 4° C. After blocking with 2% of NFDM for 1 hr at 37° C., plates were washed with TPBS, and then 21 nM of recombinant, biotinylated human (h)Gadd45β were added to the wells together with increasing concentrations of tetrapeptides which had either been subjected or had not been subjected to pre-incubation with human serum, as indicated. For a further discussion of the conditions used for the competition ELISA assay, the reader is directed to Tornatore et al 2008 JMB, 378: 97-111 and the references therein.

[3] = system: U266, KMS-11, NCI-H929, BJAB and U937 tumour cell lines; experiment: [3H]thymidine incorporation assay in tumour cell lines at 10 μM; format: cell-based, human; conditions: up to 144 hrs, result in words
Protocol: All experiments were performed in triplicate.

[4] = biological target: T2, Gadd45β/MKK7 interaction; experiment: ELISA competition assay of biotin-hGadd45β binding to coated GST-MKK7; conditions: Table III, modified peptides
Outline: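 GST-MKK7 (42 nM) coated in Tris pH 7.5 buffer, 16 h, 4 °C; biotin-hGadd45β (21 nM) added with competitor peptides (0.01–100 nM), 1 h, 37 °C. Streptavidin-HRP/o-phenylenediamine read at 490 nm; binding expressed as % of signal without competitor.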

CC(=O)N[C@H](Cc1ccc(O)cc1)C(=O)N[C@H](CC(=O)O)C(=O)N[C@H](Cc1c[nH]cn1)C(=O)N[C@H](CCC(N)=O)C(N)=O [NC1, Acetyl-(D-Tyr)-(D-Asp)-(D-His)-(D-Gln)-NH2] (Ac-[dY][dD][dH][dQ]-NH2)
restoration of MKK7 catalytic activity [1]: did not

CC(=O)N[C@@H](Cc1ccc(O)cc1)C(=O)N[C@@H](CC(=O)O)C(=O)N[C@@H](Cc1c[nH]cn1)C(=O)N[C@@H](C)C(N)=O [NC2, Acetyl-(L-Tyr)-(L-Asp)-(L-His)-(L-Ala)-NH2] (Ac-YDHA-NH2)
restoration of MKK7 catalytic activity [1]: did not

CC(=O)N[C@@H](Cc1ccc(O)cc1)C(=O)N[C@@H](CCC(=O)O)C(=O)N[C@@H](CCCCN)C(=O)N[C@@H](Cc1c[nH]c2ccccc12)C(N)=O [NC3, Acetyl-(L-Tyr)-(L-Glu)-(L-Lys)-(L-Trp)-NH2] (Ac-YEKW-NH2)
restoration of MKK7 catalytic activity [1]: did not

CC(=O)N[C@@H](Cc1ccc(O)cc1)C(=O)N[C@@H](CC(=O)O)C(=O)N[C@@H](CCCCN)C(=O)N[C@@H](Cc1c[nH]c2ccccc12)C(N)=O [NC4, Acetyl-(L-Tyr)-(L-Asp)-(L-Lys)-(L-Trp)-NH2] (Ac-YDKW-NH2)
restoration of MKK7 catalytic activity [1]: did not

NC(=O)[C@H](Cc1ccccc1)NC(=O)[C@H](Cc1c[nH]cn1)NC(=O)[C@H](CC(=O)O)NC(=O)[C@H](Cc1ccc(O)cc1)NC(=O)OCc1ccccc1 [Z-YDHF-NH2] (Cbz-YDHF-NH2)
IC50 [2]: > 10 µM
stability after pre-incubation with human serum [2]: significant loss of activity
tumoricidal/cytotoxic activity in tumour cell lines [3]: not

N=C(N)NCCC[C@H](NC(=O)[C@H](CCC(=O)O)NC(=O)[C@H](Cc1ccc(O)cc1)NC(=O)OCc1ccccc1)C(=O)N[C@@H](Cc1ccccc1)C(N)=O [Z-YERF-NH2] (Cbz-YERF-NH2)
% Inhibition of Gadd45β-MKK7 binding [4]: 78%
IC50 [2]: > 10 µM
stability after pre-incubation with human serum [2]: significant loss of activity
tumoricidal/cytotoxic activity in tumour cell lines [3]: low activity
